Data: patent US12465618B2, “Compositions and methods for degenerative disc regeneration” (University Health Network, priority 2015, dated 2025)
Like-named read-outs stand apart in the source and are kept apart here.

How the values were obtained:
rat NP cells [1] = test: Western blotting of rat NP cells treated with IL-1β/TNFα with or without inhibitors or growth factors; type: cell-based
Method: (§1) After euthanasia, healthy rat lumbar/caudal spine IVDs, injured tail discs and bovine caudal IVD NPs were removed aseptically and the nucleus pulposus (NP) was removed separately and enzymatically digested according to methods established by the present inventors^16. Similarly, human degenerative disc NPs were enzymatically digested using Pronase (0.4%, 1 hr at 37° C.) followed by Collagenase II treatment (0.015%, O/N, 37° C.). The following day, the cells were filtered with a 70p cell strainer and cultured within a hypoxic incubator (NuAire, MN, USA) in 3.5% O2, 5% CO2, in Advanced Dulbecco's modified Eagle's medium (ADMEM) supplemented with 8% fetal bovine serum (FBS) and penicillin and streptomycin (100 U/mL). For treatments, the cells were either cultured in serum free ADMEM (no treatment controls) or treated with interleukin-1β (IL-1β, 10 ng/mL), tumor necrosis factor-alpha (TNFα, 50 ng/mL), connective tissue growth factor (CTGF, 10-100 ng/mL), Wnt-inducible soluble protein 2 (WISP2, 10-100 ng/mL) or transforming growth factor beta 1 (TGFβ1, 5-20 ng/mL) for various time points under hypoxic conditions.
(§2) Equal amounts of whole cell or tissue lysates prepared using RIPA lysis buffer were subjected to Western blotting as described earlier^18,19. Total lysates (30 μg) were resolved on 10% sodium dodecyl sulphate-polyacrylamide gels (SDS-PAGE) under reducing conditions and then proteins were electro-transferred onto polyvinyledendifluoride (PVDF) membranes (BioRad, CA). After blocking with 5% non-fat powdered milk in Tris-buffered saline (TBS, 0.1 M, pH=7.4), blots were incubated with rabbit or goat polyclonal/mouse monoclonal primary antibodies at 4° C. overnight. […] Blots were washed three times with TTBS for 15 minutes and protein bands were detected by the enhanced chemiluminescence method (BioRad, CA) on Kodak Hyperfilm.

[2] = test system: human degenerative disc NP cells; test: Western blotting of human degenerative disc NP cells; type: cell-based; conditions: IL-1β and TNFα, Western blots, FIG. 2h
Method: as §1, §2

rat NP cells [3] = test: ECM and cell adhesion molecule gene array, real time quantitative PCR; type: cell-based; conditions: 24 hrs, vs no treatment control
Method: To determine the effect of IL-1β and TNFα on ECM turnover, rat NP cells were treated with IL-1β alone or in combination with TNFα for 24 hrs and real time quantitative PCR was performed using the ECM and cell adhesion molecule gene arrays (includes 84 genes).
as §1
Total RNA from healthy and treated (IL-1β alone or in combination with TNFα) rat NP cells, were isolated using RNAeasy extraction kit (Cat #74134, Qiagen) and quantified using a Nanodrop spectrophotometer. Total RNA (˜400 ng) was reverse-transcribed using RT^2 First Strand Kit (Cat #330401, Qiagen) following the manufacturer's instructions for preparing cDNA. To evaluate the effect of IL-1β alone or in combination with TNFα on extra-cellular matrix (ECM) genes in rat NP cells, the RT^2 Profiler™ PCR Array Rat Extracellular Matrix & Adhesion Molecules (PARN-013Z, Qiagen) was used and compared with no treatment controls (NTC) in 3 independent experiments using real time PCR performed on ABI 7900HT 384-well Fast block machine. Data analysis including calculation of ΔΔCt values, fold changes and p-values was carried out using software available online (https://www.qiagen.com/ca). Total RNA was isolated from human degenerative disc NP cells (H1/H2) treated with CTGF, TGFβ1, CTGF+TGFβ1 to evaluate their effect on collagen 2, HAPLN1, versican and thrombospondin 1 using gene specific primers. Similarly, RNA was isolated from human NP cells were treated with […] alone or in combination TNFα in presence of CTGF and TGFβ1 to determine their effect on Cox2 and MMP-13 expression using qRT-PCR.

[4] = test system: human degenerative disc NP cells; test: Caspase 9 Lumi-Glo assay, cytokine induced; type: cell-based; conditions: 48 hrs
Method: Apoptosis induced in NP cells (rat and human) as result of treatment with pro-inflammatory cytokines (IL-1β and TNFα) was determined using Caspase 3/7 and Caspase 9 specific Lumi-Glo assays (Promega, Madison). Briefly, NP cells were plated and treated with either IL-1β alone or in combination with TNFα only or in presence of CTGF and TGFβ1 for 48 hrs, followed by addition of specific reagents for Caspase 3/7 and Caspase 9 as per the manufacturer's instructions. Cells were incubated for another 4 hrs at 37° C., and plates were read in a multi-well luminescence plate reader.

[5] = test system: rat-tail disc NP cells (healthy/injured); test: MTT cell viability assay; type: cell-based; conditions: CTGF 100 ng/ml, TGFβ1 10 ng/ml, 48 hrs-72 hrs
Method: (§3) Nucleus pulposus cells (rat, bovine and human) were plated in 96-well flat bottom plates in order to evaluate the effect of treatment with growth factors in cell viability and proliferation assays. Rat NP cells were treated with CTGF, WISP-2 and TGFβ1 in a dose (1 ng/mL-100 ng/mL) and time dependent manner (24 hrs-96 hrs) to determine the optimum dose and time for the assessment of these growth factors on viability. Cell viability was determined using 3-(4,5-dimethylthiazol-2-yl)-2,5-diphenyltetrazolium bromide (MTT, Sigma-Aldrich, USA) as previously described^44. A BrdU-ELISA (colorimetric) assay (Cat #ab126556, Abcam) was used for determining the effect of treatment with CTGF or TGFβ1 on human and rat NP cells (healthy/injured) following the manufacturer's instructions. Briefly, NP cells were treated with CTGF or TGFβ1 alone or in combination for 48 hrs following addition of BrdU reagent O/N in each well. Incorporated BrdU in DNA of proliferating cells was determined using anti-BrdU antibody and quantified by ELISA as per the manufacturer's instructions.

[6] = test system: bovine degenerative disc NP cells; test: MTT cell viability assay; type: cell-based; conditions: CTGF 100 ng/ml, TGFβ1 10 ng/ml, 48 hrs-72 hrs
Method: as §3

[7] = test system: rat-tail injured disc NPs; test: Pre-clinical rodent needle puncture disc injury model of DDD, intra-discal injection; type: in vivo, Wistar rat
Method: 12-week old female Wistar rats (Charles River Laboratories International, Inc., MA, USA) were used in order to develop a pre-clinical rodent model of DDD and to evaluate the therapeutic potential of NCCM, CTGF and TGFβ1 in these pre-clinical rodent models. Experiments were performed in accordance with the Guide for the Care and Use of Laboratory Animals, and the experimental protocols were approved by the ethics approval board of Toronto Western Hospital, Toronto, ON, Canada. The surgical procedure was as follows: Anesthesia was achieved using isofluorane (5 L/min plus 1 L/min O2) and maintained at 3 L/min. Once deeply anaesthetized, the animal was affixed on a stereotactic procedure apparatus (Model 900, Kopf Instruments California USA) with nose cone inhalation. For animal experiments, the tail was shaved and prepped with isopropanol in a sterile manner. Fluoroscopy was used to visualize needle penetration and to ensure that the needle penetrated into the center of the NP. For disc injury, a 26-gauge (G), 35° beveled, 0.75 inches high needle (Hamilton Company, USA) mounted on a Hamilton syringe was used. The needle was advanced completely through the selected tail IVD to penetrate the full thickness inclusive of the annulus fibrosus on both sides of the disc. Confirmation of needle placement was made using fluoroscopy and maintained in position for 2 minutes, withdrawn halfway to the center of the NP and left there for 1 minute and then slowly withdrawn completely over a 1-minute period. The animals were then removed from the stereotactic apparatus and allowed to recover in a warmed cage. At the end of study period i.e. 72 hrs-10 weeks, animals were humanely euthanized using CO2 and each vertebral lumbar/caudal motion segment was dissected aseptically. IVDs were either fixed in formalin for histological analysis or the nucleus pulposus (healthy/injured) was harvested and lysed in RIPA buffer (50 mM Tris, pH=7.4, 150 mM NaCl, 1% NP-40 and protease inhibitor cocktail) for western blotting.
To determine the regenerative potential of NCCM, CTGF or TGFβ1, 4 IVDs per animal of 12 week old rats were injured using a 26G needle as described above. Four weeks post-injury, animals were randomized into groups of six and an intra-discal injection (˜8 μL) of either NCCM, CTGF (100 ng/mL) or TGFβ1 (10 ng/mL) was given under local anesthesia. For NCCM injected animals, the control group consisted of animals that received an intra-discal injection (˜8 μL) of Hybridoma culture medium only, while phosphate buffered saline (PBS, 1×, pH=7.2) served as control for CTGF and TGFβ1 injected animal groups. Six weeks later, the NPs from injured and control discs were harvested and either fixed in formalin for histological analysis or lysed in RIPA lysis buffer for western blotting. Each of this experiment was repeated independently to ensure reproducibility.
The tissues were fixed in 10% formalin and decalcified in 10% EDTA solution. The decalcified disc was initially split in the mid sagittal plane, embedded in paraffin and 5p thick sections were obtained for histological evaluation. Hemaetoxylin and eosin (H&E) and Safranin-O staining was performed to assess general morphology and proteoglycan content in these tissue sections as previously described^16. For immunohistochemistry/immunofluorescence (IF), paraffin-embedded sections (5 μm) of human degenerative disc NP, bovine NP, healthy canines (NCD) and rat (healthy/injured) discs were deparaffinized in xylene, hydrated in gradient alcohol followed by antigen retrieval in Tris-EDTA buffer (pH=9.0). The sections were incubated with hydrogen peroxide (0.3% v/v) in methanol for 15 minutes to quench the endogenous peroxidase activity, followed by blocking with 10% serum to preclude non-specific binding. Thereafter, the slides were incubated with either rabbit or goat polyclonal/mouse monoclonal primary antibodies overnight (O/N) at 4° C. […]

[8] = rat NP cells treated with IL-1β and TNFα, Western blot, FIG. 2f-2g
[9] = rat tail injured discs, western blots, FIG. 12(b)

## Cc1ccc(S(=O)(=O)/C=C/C#N)cc1 [BAY-11-7082]
Rat NP cells [1]; [8]
  IL-1β and TNFα induced MMP-3, MMP-13 and Cox2 expression in presence of inhibitor: Reduced expression
[2]
  cytokine induced Cox2 expression in presence of inhibitor: decreased expression

## N#CC(=C(/N)Sc1ccccc1N)/C(C#N)=C(\N)Sc1ccccc1N [U0126]
Rat NP cells [1]
  IL-1β and TNFα induced MMP-3, MMP-13 and Cox2 expression in presence of inhibitor: failed to induce

## C[C@H](NC(=O)/C(C#N)=C/c1cccc(Br)n1)c1ccccc1 [STAT3 inhibitor]
Rat NP cells [1]; [8]
  IL-1β and TNFα induced MMP-3, MMP-13 and Cox2 expression in presence of inhibitor: Reduced expression
[2]
  cytokine induced Cox2 expression in presence of inhibitor: decreased expression

## C[S+]([O-])c1ccc(-c2nc(-c3ccncc3)c(-c3ccc(F)cc3)[nH]2)cc1 (stereo not drawn) [SB203580]
Rat NP cells [1]; IL-1β treated rat NP cells, Western blot, FIG. 2f
  MMP-3, MMP-13 and Cox2 expression in presence of inhibitor: reduced expression
[2]
  cytokine induced Cox2 expression in presence of inhibitor: decreased expression

## COC[C@H]1OC(=O)c2coc3c2[C@@]1(C)C1=C(C3=O)[C@@H]2CCC(=O)[C@@]2(C)C[C@H]1OC(C)=O [Wortamanin]
Rat NP cells [1]; [8]
  IL-1β and TNFα induced MMP-3, MMP-13 and Cox2 expression in presence of inhibitor: reduced expression of MMP-3 and MMP-13 only

## IL1β: Human recombinant pro-inflammatory cytokine interleukin-1 beta, purchased from Peprotech, used at 10 ng/mL
Rat NP cells [3]
  Fold regulation (IL1β vs NTC), gene Adamts8: 139.39
  Fold regulation (IL1β vs NTC), gene Cd44: 23.57
  Fold regulation (IL1β vs NTC), gene Cdh3: −6.18
  Fold regulation (IL1β vs NTC), gene Col3a1: −3.80
  Fold regulation (IL1β vs NTC), gene Col4a1: 4.24
  Fold regulation (IL1β vs NTC), gene Col4a2: 3.20
  Fold regulation (IL1β vs NTC), gene Ctgf: −2.40
  Fold regulation (IL1β vs NTC), gene Emilin1: 4.42
  Fold regulation (IL1β vs NTC), gene Hapln1: −6.01
  Fold regulation (IL1β vs NTC), gene Icam1: 6.56
  Fold regulation (IL1β vs NTC), gene Itga3: 9.22
  Fold regulation (IL1β vs NTC), gene Itga5: 6.23
  Fold regulation (IL1β vs NTC), gene Itgav: 2.14
  Fold regulation (IL1β vs NTC), gene Lamc1: 4.24
  Fold regulation (IL1β vs NTC), gene MMP3: 68.04
  Fold regulation (IL1β vs NTC), gene MMP9: 1252.77
  Fold regulation (IL1β vs NTC), gene MMP13: 36.82
  Fold regulation (IL1β vs NTC), gene Mmp11: −3.86
  Fold regulation (IL1β vs NTC), gene Ncam1: −2.00
  Fold regulation (IL1β vs NTC), gene Thbs1: −3.35
  Fold regulation (IL1β vs NTC), gene Thbs2: −4.14
  Fold regulation (IL1β vs NTC), gene Timp1: 5.04
Rat NP cells [1]; rat NP cells, 5-60 minutes, no significant change in total protein
  phosphorylation levels of c-Raf (S259), p42/44 (Thr202/Tyr204) and p38MAPK (Thr180/Tyr182): increased phosphorylation levels

B1: CTGF: Human recombinant connective tissue growth factor, Peprotech cat #120-19, identified in NCCM (protein, UniProt P29279 27-349, looked up)
CCN family member 2: QNCSGPCRCPDEPAPRCPAGVSLVLDGCGCCRVCAKQLGELCTERDPCDPHKGLFCHFGSPANRKIGVCTAKDGAPCIFGGTVYRSGESFQSSCKYQCTCLDGAVGCMPLCSMDVRLPSPDCPFPRRVKLPGKCCEEWVCDEPKDQTVVGPALAAYRLEDTFGPDPTMIRANCLVQTTEWSACSKTCGMGISTRVTNDNASCRLEKQSRLCMVRPCEADLEENIKKGKKCIRTPKISKPIKFELSGCTSMKTYRAKFCGVCTDGRCCTPHRTTTLPVEFKCPDGEVMKKNMMFIKTCACHYNCPGDNDIFESLYYRKMYGDMA
[4]
  IL-1β and TNFα induced caspase 9 activity: significant reduction
[5]
  cell viability (MTT): increased the viability
[6]
  cell viability (MTT): increased the viability
[7]; intra-discal injection four weeks following injury, 10 weeks post-injury, vs vehicle control
  aggrecan and collagen II (immunohistochemical analysis): strong expression
[7]; intra-discal injection four weeks following injury, CTGF 100 ng/mL, TGFβ1 10 ng/mL, 10 weeks post-injury, vs PBS
  histological analysis, Safranin-O staining of NP: healthy disc, rich in NCs
[7]; [9]
  expression of MMP-13 and Cox2 in NP tissue lysates: decreased expression
  stem cell marker Oct4 in NP tissue lysates: restoration
Rat NP cells [1]; rat-tail NP cells treated with IL-1β and TNFα, Western blot, FIG. 5g-5h
  expression of MMP-3, MMP-13 and Cox2 proteins in presence of growth factor: reduced expression
